The values below come from ChEMBL document CHEMBL5465560, “Selectivity Literature for EUbOPEN Chemogenomic Library” (2024).

Assay [1] in a line: Selectivity interaction (Ambit KINOMEscan and KiNATiv profiling in Jurkat cells) EUB0000090b PKNB. The conditions noted are these: Selectivity number of off-targets 9; Selectivity number of targets 456; Source Knowledge https://www.nature.com/articles/nchembio.2166; at 1 µM.
For assay [2], the target named is Serine/threonine-protein kinase 16 (Homo sapiens, UniProt O75716). Briefly: Selectivity interaction (KinomeScan (DiscoverX)) EUB0000607a STK16. The conditions noted are these: at 10 µM.
Serine/threonine-protein kinase 16, sequence (O75716 whole entry, canonical isoform): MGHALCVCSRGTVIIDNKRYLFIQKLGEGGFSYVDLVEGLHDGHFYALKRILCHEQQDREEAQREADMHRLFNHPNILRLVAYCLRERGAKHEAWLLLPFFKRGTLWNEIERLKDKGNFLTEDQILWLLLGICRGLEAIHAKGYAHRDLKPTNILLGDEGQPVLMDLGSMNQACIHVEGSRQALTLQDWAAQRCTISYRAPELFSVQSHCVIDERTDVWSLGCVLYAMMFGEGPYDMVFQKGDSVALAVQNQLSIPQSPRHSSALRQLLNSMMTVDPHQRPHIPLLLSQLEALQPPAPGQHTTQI
Assay [3] has as its target T1, Casein kinase I isoform alpha-like (Homo sapiens) (UniProt Q8N752).
T1 sequence (whole entry): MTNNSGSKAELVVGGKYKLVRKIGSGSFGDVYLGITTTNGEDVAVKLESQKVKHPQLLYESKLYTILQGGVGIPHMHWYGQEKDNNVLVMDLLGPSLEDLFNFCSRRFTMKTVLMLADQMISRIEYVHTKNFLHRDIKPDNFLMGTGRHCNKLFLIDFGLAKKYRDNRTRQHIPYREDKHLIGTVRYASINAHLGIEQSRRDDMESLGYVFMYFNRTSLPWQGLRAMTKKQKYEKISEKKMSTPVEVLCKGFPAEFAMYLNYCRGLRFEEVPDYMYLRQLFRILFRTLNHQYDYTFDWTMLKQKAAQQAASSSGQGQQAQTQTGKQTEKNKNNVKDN
The note with it: at 10 µM.

In assay [4] the target is T2, Myosin-IIIb (Homo sapiens) (UniProt Q8WXR4).
T2 sequence (whole entry): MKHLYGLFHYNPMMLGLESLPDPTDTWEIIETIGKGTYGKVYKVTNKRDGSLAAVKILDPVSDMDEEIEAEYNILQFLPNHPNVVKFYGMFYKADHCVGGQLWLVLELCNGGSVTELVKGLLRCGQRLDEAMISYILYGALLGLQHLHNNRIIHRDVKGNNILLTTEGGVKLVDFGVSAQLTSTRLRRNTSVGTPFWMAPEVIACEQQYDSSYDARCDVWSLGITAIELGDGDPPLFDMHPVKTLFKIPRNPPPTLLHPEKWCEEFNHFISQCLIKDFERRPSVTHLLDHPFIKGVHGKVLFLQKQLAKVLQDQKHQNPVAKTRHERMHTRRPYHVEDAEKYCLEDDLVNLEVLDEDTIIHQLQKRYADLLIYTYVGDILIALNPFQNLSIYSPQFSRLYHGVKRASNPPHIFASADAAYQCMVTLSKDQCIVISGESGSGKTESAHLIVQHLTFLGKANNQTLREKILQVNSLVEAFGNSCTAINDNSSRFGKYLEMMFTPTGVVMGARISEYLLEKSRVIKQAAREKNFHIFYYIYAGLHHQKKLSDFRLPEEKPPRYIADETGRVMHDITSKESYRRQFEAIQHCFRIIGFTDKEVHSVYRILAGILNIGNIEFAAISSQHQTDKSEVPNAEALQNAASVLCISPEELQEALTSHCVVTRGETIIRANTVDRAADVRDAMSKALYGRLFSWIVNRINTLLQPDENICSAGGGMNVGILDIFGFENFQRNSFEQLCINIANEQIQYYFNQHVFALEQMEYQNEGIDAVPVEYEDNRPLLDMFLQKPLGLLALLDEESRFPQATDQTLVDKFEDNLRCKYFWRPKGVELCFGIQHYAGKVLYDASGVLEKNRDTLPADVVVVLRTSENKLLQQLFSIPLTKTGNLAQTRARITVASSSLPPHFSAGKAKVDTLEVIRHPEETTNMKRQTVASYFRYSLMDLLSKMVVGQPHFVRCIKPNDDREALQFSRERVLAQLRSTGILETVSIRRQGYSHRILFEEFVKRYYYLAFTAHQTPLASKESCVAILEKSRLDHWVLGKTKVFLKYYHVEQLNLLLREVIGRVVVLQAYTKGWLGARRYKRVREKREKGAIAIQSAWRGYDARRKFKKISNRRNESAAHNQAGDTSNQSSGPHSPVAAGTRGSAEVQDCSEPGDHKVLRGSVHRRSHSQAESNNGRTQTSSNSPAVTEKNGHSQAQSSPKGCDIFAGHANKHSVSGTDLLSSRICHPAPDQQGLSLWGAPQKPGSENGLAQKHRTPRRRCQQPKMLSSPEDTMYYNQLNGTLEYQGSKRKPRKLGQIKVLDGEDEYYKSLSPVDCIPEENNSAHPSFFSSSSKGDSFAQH
Briefly: Selectivity interaction (KinomeScan (DiscoverX)) EUB0000666a MYO3B. The conditions noted are these: at 10 µM.

Assay [5] concerns the target Fibroblast growth factor receptor 1 (Homo sapiens, UniProt P11362). Briefly: Selectivity interaction (KinomeScan (DiscoverX)) EUB0000229b FGFR1. The conditions noted are these: at 10 µM.
In assay [6] the target is Receptor-type tyrosine-protein kinase FLT3 (Homo sapiens) (UniProt P36888). Briefly: Selectivity interaction (Millipore kinase profiler) EUB0000124b FLT3. The note with it: at 10 µM.
Receptor-type tyrosine-protein kinase FLT3 (Homo sapiens), sequence (P36888 whole entry): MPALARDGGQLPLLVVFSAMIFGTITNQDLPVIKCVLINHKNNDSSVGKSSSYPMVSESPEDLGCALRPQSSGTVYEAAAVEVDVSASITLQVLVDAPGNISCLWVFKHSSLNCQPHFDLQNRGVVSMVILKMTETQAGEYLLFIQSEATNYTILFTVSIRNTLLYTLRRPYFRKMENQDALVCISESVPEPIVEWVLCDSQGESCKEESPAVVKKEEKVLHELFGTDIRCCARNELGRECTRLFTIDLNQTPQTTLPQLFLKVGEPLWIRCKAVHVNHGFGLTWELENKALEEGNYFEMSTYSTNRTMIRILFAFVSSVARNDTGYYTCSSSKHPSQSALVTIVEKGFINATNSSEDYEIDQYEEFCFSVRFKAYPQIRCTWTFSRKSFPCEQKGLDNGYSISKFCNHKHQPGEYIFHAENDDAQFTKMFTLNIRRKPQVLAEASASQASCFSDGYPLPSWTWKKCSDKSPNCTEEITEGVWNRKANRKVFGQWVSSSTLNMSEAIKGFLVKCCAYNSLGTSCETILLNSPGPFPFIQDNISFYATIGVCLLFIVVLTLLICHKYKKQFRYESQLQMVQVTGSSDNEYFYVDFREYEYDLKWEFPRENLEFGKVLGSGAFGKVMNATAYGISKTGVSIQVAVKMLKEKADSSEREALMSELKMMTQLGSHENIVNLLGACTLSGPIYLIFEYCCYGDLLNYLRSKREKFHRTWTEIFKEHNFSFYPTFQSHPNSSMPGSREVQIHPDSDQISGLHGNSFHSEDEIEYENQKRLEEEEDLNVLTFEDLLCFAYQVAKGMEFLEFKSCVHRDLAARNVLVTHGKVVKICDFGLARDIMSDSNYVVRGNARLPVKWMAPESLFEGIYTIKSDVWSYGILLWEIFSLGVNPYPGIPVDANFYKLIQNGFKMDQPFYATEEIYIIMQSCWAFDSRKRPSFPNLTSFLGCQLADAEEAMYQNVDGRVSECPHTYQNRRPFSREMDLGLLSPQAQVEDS
The target of assay [7] is Vascular endothelial growth factor receptor 3 (Homo sapiens, UniProt P35916). The assay can be described thus: Selectivity interaction (KinomeScan (DiscoverX)) EUB0000695a FLT4. The conditions noted are these: at 100 nM.
Vascular endothelial growth factor receptor 3, sequence (P35916 whole entry): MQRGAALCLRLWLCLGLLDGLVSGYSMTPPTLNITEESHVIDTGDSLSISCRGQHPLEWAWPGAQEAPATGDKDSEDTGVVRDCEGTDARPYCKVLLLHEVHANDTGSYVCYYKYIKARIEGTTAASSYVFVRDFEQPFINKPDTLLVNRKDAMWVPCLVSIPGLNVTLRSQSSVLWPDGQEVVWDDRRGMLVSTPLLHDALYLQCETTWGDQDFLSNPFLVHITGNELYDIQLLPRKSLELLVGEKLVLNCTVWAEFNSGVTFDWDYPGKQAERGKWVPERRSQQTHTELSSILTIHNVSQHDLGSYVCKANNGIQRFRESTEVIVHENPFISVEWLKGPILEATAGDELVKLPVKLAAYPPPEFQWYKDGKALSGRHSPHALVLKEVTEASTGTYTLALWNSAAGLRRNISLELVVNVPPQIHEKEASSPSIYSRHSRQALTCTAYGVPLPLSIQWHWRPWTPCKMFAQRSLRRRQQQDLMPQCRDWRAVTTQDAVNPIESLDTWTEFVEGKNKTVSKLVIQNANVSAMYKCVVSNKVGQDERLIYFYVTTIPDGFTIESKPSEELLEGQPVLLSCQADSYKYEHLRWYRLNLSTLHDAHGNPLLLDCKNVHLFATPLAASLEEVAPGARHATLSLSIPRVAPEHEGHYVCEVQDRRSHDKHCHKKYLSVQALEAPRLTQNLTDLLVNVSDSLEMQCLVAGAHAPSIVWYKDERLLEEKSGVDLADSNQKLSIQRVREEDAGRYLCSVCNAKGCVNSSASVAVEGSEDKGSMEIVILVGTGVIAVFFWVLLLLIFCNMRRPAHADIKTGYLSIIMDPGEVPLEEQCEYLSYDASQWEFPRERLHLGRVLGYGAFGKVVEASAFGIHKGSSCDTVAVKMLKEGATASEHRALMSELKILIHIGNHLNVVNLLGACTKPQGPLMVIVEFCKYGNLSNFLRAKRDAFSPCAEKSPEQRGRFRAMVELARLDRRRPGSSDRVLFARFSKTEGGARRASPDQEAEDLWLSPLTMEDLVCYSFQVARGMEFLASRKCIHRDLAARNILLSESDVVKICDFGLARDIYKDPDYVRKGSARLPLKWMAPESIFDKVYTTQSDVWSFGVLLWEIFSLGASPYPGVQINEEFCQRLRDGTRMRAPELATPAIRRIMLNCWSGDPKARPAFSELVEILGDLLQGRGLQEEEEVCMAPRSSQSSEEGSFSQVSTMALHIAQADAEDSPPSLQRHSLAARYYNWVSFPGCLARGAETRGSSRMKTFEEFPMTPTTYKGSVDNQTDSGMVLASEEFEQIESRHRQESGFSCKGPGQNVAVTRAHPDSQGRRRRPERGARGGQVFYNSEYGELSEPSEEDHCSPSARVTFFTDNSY
Assay [8] concerns the target Activin receptor type-2A (Homo sapiens) (UniProt P27037). The assay can be described thus: Selectivity interaction (KinomeScan (DiscoverX)) EUB0000618a ACVR2A. The note with it: at 10 µM.
For assay [9], the target named is Calcium/calmodulin-dependent protein kinase type II subunit gamma (Homo sapiens) (UniProt Q13555). Briefly: Selectivity interaction (KinomeScan (DiscoverX)) EUB0000595a CAMK2G. The conditions noted are these: at 10 µM.
Calcium/calmodulin-dependent protein kinase type II subunit gamma (Homo sapiens), sequence (Q13555 whole entry): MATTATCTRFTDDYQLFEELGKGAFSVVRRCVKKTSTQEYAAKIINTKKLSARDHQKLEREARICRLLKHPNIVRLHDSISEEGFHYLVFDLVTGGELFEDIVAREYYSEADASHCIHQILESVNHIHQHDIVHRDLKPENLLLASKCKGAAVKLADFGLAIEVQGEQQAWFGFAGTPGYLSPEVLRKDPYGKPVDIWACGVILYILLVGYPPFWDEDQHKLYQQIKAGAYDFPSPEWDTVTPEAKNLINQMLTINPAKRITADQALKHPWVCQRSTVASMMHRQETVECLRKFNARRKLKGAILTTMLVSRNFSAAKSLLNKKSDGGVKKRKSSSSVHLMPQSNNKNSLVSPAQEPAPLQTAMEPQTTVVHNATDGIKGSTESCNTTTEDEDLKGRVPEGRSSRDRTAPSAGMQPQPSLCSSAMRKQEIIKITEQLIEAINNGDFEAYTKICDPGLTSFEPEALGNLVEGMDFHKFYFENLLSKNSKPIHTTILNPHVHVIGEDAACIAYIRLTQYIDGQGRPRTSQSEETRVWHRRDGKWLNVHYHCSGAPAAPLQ
Assay [10] addresses T3, NUAK family SNF1-like kinase 2 (Homo sapiens) (UniProt Q9H093).
T3 sequence (whole entry): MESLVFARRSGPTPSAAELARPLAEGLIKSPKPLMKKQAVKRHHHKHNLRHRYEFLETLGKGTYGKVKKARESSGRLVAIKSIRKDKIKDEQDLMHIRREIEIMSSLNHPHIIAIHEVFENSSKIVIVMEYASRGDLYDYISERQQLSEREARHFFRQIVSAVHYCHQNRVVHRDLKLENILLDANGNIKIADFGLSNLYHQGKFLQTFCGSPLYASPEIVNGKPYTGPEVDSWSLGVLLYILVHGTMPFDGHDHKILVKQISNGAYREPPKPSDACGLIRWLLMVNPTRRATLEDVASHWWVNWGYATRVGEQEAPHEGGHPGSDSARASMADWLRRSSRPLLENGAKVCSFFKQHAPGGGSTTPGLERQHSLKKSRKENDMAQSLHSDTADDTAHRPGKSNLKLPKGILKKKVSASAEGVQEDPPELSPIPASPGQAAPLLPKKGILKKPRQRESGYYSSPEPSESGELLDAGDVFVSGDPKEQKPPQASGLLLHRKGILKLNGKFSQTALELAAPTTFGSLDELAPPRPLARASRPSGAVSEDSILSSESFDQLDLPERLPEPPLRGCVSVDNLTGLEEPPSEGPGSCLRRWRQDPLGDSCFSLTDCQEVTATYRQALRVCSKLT
The assay can be described thus: Selectivity interaction (KinomeScan (DiscoverX)) EUB0000595a NUAK2. The conditions noted are these: at 10 µM.

SMILES strings stand for the structures.

Fibroblast growth factor receptor 1, sequence (P11362 22-822 limits assumed): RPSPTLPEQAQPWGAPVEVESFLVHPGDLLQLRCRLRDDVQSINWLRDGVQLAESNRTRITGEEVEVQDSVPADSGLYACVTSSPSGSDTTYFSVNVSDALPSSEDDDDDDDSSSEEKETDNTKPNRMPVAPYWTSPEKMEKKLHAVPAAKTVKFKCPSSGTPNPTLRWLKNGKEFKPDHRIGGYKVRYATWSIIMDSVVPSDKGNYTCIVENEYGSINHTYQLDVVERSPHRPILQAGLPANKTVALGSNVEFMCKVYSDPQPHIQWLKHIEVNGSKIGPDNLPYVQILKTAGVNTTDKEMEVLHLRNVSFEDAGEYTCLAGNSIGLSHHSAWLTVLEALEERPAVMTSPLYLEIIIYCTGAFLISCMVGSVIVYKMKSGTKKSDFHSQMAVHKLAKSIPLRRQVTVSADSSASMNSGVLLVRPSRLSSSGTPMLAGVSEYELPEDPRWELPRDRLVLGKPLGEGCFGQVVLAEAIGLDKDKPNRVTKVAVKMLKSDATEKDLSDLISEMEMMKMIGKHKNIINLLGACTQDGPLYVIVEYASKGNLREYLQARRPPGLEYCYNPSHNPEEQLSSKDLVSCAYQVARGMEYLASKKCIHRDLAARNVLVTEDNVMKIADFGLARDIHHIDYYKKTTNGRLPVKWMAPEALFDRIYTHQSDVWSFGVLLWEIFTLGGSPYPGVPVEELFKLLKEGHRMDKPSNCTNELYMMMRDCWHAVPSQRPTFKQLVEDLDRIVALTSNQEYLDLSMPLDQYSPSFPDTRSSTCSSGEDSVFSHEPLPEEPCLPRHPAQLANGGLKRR
Activin receptor type-2A (Homo sapiens), sequence (P27037 whole entry): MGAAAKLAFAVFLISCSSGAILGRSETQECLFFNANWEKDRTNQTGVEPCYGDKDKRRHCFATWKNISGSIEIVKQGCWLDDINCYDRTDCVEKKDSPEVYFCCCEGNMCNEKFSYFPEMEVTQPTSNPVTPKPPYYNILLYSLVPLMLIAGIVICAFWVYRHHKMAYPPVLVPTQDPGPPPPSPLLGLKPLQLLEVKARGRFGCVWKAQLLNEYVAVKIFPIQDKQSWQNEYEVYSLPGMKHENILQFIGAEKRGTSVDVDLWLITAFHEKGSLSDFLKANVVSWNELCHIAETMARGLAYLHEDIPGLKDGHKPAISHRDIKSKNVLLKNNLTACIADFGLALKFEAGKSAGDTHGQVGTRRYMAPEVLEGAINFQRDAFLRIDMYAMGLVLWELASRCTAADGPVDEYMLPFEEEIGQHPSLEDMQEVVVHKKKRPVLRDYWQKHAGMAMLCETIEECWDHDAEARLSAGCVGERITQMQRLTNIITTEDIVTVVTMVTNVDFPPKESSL

As for `CN(C)C/C=C/C(=O)Nc1ccc(C(=O)N2CCCC(Nc3ncc(Cl)c(-c4c[nH]c5ccccc45)n3)C2)cc1` (stereo not given), the “% of control” value in assay [1] is 38%.

`CNC(=O)Nc1ccc(-c2nc(N3CC4CCC(C3)O4)c3cnn(C4CCC5(CC4)OCCO5)c3n2)cc1` showed a % of control in assay [2] of 98%. Regarding `Cc1cc([C@@H](C)Nc2ccccc2C(=O)O)c2nc(N3CCOCC3)cc(=O)n2c1` [AZD-6482], the % of control in [3] was found to be 100%.

As to `O=C(NOC[C@H](O)CO)c1ccc(F)c(F)c1Nc1ccc(I)cc1F`, the % of control in [4] was 99%. For `COc1cc(N(C)c2ccnc3ccc(C(F)(F)F)cc23)cc(OC)c1OC`, in [5], the % binding amounted to 99%.

Take `CC(=O)Nc1cccc(-n2c(=O)n(C3CC3)c(=O)c3c(Nc4ccc(I)cc4F)n(C)c(=O)c(C)c32)c1`: the % of control in assay [6] turned out to be 107%. The molecule `Cc1cc(F)c(C(=O)Nc2cccc(-c3nncn3C(C)C)n2)cc1-n1cnc(C2CC2)c1` showed a % of control in [7] of 100%. `O[C@H]1CC[C@H](Nc2ncc3nc(Nc4c(F)cc(F)cc4F)n([C@H]4CCOC4)c3n2)CC1`: the % of control in assay [8] stood at 92%. Take `COCC(=O)NC/C=C/c1ccc2ncnc(Nc3ccc(Oc4ccc(C)nc4)c(C)c3)c2c1` [CP-724714]: the % of control in assay [9] worked out at 94%; in [10], 100%.
